Source: ChEMBL document CHEMBL1142224, “Mapping the elusive neonicotinoid binding site” (Proc Natl Acad Sci U S A, 2007)

How the values were obtained:
[1] = Displacement of [3H]EPI from Aplysia AChBP expressed in HEK293S cells by scintillation proximity assay; type: cell-based
[2] = Displacement of [3H]ACE from Aplysia AChBP expressed in HEK293S cells by scintillation proximity assay; type: cell-based
[3] = Inhibition of [3H]1-((5-azido-6-chloropyridin-3-yl)methyl)-3-methyl-2-nitroguanidine incorporation into AchBP assessed as protection of photoaffinity labeling at 500 pmol; set-up: scale not given: the % may be the effect or the level left

## N#C/N=c1\sccn1Cc1cnc(Cl)c(N=[N+]=[N-])c1
[1]
  Ki: 1.7 nM
[2]
  Ki: 2.3 nM

## Clc1ccc(C2CC3CCC2N3)cn1 (racemic) [EPIBATIDINE]
[1]
  Ki: 8.6 nM
[2]
  Ki: 14 nM

## C/C(=N\C#N)N(C)Cc1ccc(Cl)nc1 [ACETAMIPRID]
[1]
  Ki: 19 nM
[2]
  Ki: 41 nM

## CN/C(=N\[N+](=O)[O-])NCc1cnc(Cl)s1 [CLOTHIANIDINE]
[1]
  Ki: 574 nM
[2]
  Ki: 808 nM

## N=C1SCCN1Cc1ccc(Cl)nc1 [DESCYANOTHIACLOPRID]
[1]
  Ki: 8.5 nM
[2]
  Ki: 10 nM

## N=C1NCCN1Cc1ccc(Cl)nc1 [DESNITROIMIDACLOPRID]
[1]
  Ki: 44 nM
[2]
  Ki: 56 nM

## O=[N+]([O-])/N=C1\NCCN1Cc1ccc(Cl)nc1 [IMIDACLOPRID]
[1]
  Ki: 180 nM
[2]
  Ki: 267 nM
[3]
  Activity: 50%

## CN1CCC[C@H]1c1cccnc1 [NICOTINE]
[1]
  Ki: 260 nM
[2]
  Ki: 415 nM

## CCN(Cc1ccc(Cl)nc1)/C(=C/[N+](=O)[O-])NC [NITENPYRAM]
[1]
  Ki: 180 nM
[2]
  Ki: 335 nM

## N#C/N=C1\SCCN1Cc1ccc(Cl)nc1 [THIACLOPRID]
[1]
  Ki: 8.4 nM
[2]
  Ki: 9.9 nM
